Measurements reported in ChEMBL document CHEMBL1201862, “PubChem BioAssay data set” (2004).
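Five compound concentrations were applied to cells in 96-well plates for 48 hours; endpoints were derived by simple linear interpolation of the resulting dose-response curve. GI50 marks 50% less growth.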 The source made the active and inactive calls. Cut-off read from the data, not from the text of the source: active = GI50 up to about 1.1 µM and inactive = higher.

Columns and labels:
Assay in all cases: DTP human tumour cell line panel, 48 h
786-0 = test system: 786-0
ACHN = test system: ACHN
DU-145 = test system: DU-145
EKVX = test system: EKVX
HCT-116 = test system: HCT-116
MDA-MB-231 = test system: MDA-MB-231
MDA-N = test system: MDA-N
Malme-3M = test system: Malme-3M
NCI-H23 = test system: NCI-H23
OVCAR-4 = test system: OVCAR-4
PC-3 = test system: PC-3
SF-268 = test system: SF-268
SF-295 = test system: SF-295
SF-539 = test system: SF-539
SK-MEL-28 = test system: SK-MEL-28
SK-MEL-5 = test system: SK-MEL-5
SR = test system: SR
UACC-62 = test system: UACC-62
HCC 2998 = test system: HCC 2998

Measured: GI50

S=C(S)NCCCn1ccnc1
inactive: 786-0 > 100 µM | ACHN > 100 µM | DU-145 > 100 µM | EKVX > 100 µM | HCT-116 > 100 µM | MDA-MB-231 > 100 µM | MDA-N > 100 µM | Malme-3M > 100 µM | NCI-H23 > 100 µM | OVCAR-4 > 100 µM | PC-3 > 100 µM | SF-268 > 100 µM | SF-295 > 100 µM | SF-539 > 100 µM | SK-MEL-28 > 100 µM | SK-MEL-5 > 100 µM | SR > 100 µM | UACC-62 > 100 µM

O=C(c1ccccc1)c1ccc2c(c1)nc1n2C(c2c(F)cccc2F)SC1 (centres undefined)
inactive: 786-0 27.4 µM | ACHN 28.8 µM | DU-145 40.5 µM | EKVX 11.5 µM | HCC 2998 36.5 µM | HCT-116 15 µM | MDA-MB-231 41.9 µM | MDA-N 19.7 µM | Malme-3M 31.2 µM | NCI-H23 28.8 µM | OVCAR-4 21.7 µM | PC-3 16.3 µM | SF-268 49.9 µM | SF-295 17.9 µM | SF-539 28.6 µM | SK-MEL-28 32.1 µM | SK-MEL-5 12.9 µM | UACC-62 15.5 µM

COCN1C(=O)[C@@H]2CCCN2C(=O)c2cc(Cl)ccc21
inactive: 786-0 > 100 µM | ACHN > 100 µM | DU-145 > 100 µM | EKVX > 100 µM | HCC 2998 > 100 µM | HCT-116 > 100 µM | MDA-MB-231 > 100 µM | MDA-N > 100 µM | Malme-3M > 100 µM | NCI-H23 > 100 µM | OVCAR-4 > 100 µM | PC-3 > 100 µM | SF-268 > 100 µM | SF-295 > 100 µM | SK-MEL-28 > 100 µM | SK-MEL-5 > 100 µM | SR > 100 µM | UACC-62 > 100 µM

CC(C)(C)OC(=O)NCC(c1c[nH]c2ccccc12)c1c[nH]c2ccccc12
inactive: 786-0 16.1 µM | ACHN > 100 µM | DU-145 15.6 µM | EKVX 12.7 µM | HCT-116 16 µM | MDA-MB-231 16 µM | MDA-N 17.5 µM | Malme-3M 17.7 µM | NCI-H23 18.4 µM | OVCAR-4 12.9 µM | PC-3 15.8 µM | SF-268 17.1 µM | SF-295 15.6 µM | SF-539 17.7 µM | SK-MEL-28 18.1 µM | SK-MEL-5 13 µM | SR 14.9 µM | UACC-62 > 100 µM

COc1cc(-c2c[nH]c3ccccc23)nc(-c2c[nH]c3ccccc23)n1
inactive: 786-0 1.86 µM | ACHN 2.61 µM | DU-145 11.3 µM | EKVX 5.56 µM | HCC 2998 4.22 µM | HCT-116 3.43 µM | MDA-MB-231 2.49 µM | MDA-N 4.05 µM | OVCAR-4 8.81 µM | PC-3 2.84 µM | SF-268 14.7 µM | SF-295 3.13 µM | SF-539 7.14 µM | SK-MEL-5 5 µM | SR 9.53 µM | UACC-62 6.18 µM

COc1ccc(N2C(=O)/C(=C/c3ccc(N(CCC#N)CCC#N)cc3)N=C2c2ccccc2)cc1
inactive: 786-0 > 100 µM | ACHN > 100 µM | DU-145 > 100 µM | EKVX > 100 µM | HCT-116 > 100 µM | MDA-MB-231 > 100 µM | MDA-N > 100 µM | Malme-3M > 100 µM | OVCAR-4 > 100 µM | PC-3 > 100 µM | SF-268 > 100 µM | SF-295 > 100 µM | SF-539 > 100 µM | SK-MEL-28 > 100 µM | SK-MEL-5 > 100 µM | SR > 100 µM | UACC-62 > 100 µM

CN1C(=O)C23CCCC2CC1(c1ccccc1)S3 (centres undefined)
inactive: 786-0 > 100 µM | ACHN > 100 µM | DU-145 > 100 µM | EKVX > 100 µM | HCT-116 > 100 µM | MDA-MB-231 90.4 µM | MDA-N > 100 µM | Malme-3M > 100 µM | NCI-H23 > 100 µM | OVCAR-4 56.1 µM | PC-3 45.2 µM | SF-268 > 100 µM | SF-295 > 100 µM | SF-539 > 100 µM | SK-MEL-28 > 100 µM | SK-MEL-5 > 100 µM | SR > 100 µM | UACC-62 > 100 µM

O=c1[nH]c2ccc(C(F)(F)F)cc2nc1-c1ccccc1
inactive: 786-0 > 100 µM | ACHN > 100 µM | DU-145 > 100 µM | EKVX > 100 µM | HCC 2998 > 100 µM | HCT-116 > 100 µM | MDA-MB-231 > 100 µM | MDA-N > 100 µM | Malme-3M > 100 µM | NCI-H23 > 100 µM | PC-3 > 100 µM | SF-268 > 100 µM | SF-295 > 100 µM | SF-539 > 100 µM | SK-MEL-28 > 100 µM | SK-MEL-5 > 100 µM | SR 88.3 µM | UACC-62 > 100 µM

C/C(=N\c1cccc(Cl)c1)c1ccncc1
inactive: 786-0 > 100 µM | ACHN > 100 µM | DU-145 > 100 µM | EKVX > 100 µM | HCC 2998 > 100 µM | HCT-116 > 100 µM | MDA-MB-231 > 100 µM | MDA-N > 100 µM | Malme-3M > 100 µM | NCI-H23 > 100 µM | OVCAR-4 > 100 µM | PC-3 > 100 µM | SF-268 14.6 µM | SF-295 > 100 µM | SF-539 > 100 µM | SK-MEL-28 > 100 µM | SK-MEL-5 > 100 µM | UACC-62 28.3 µM

N/C(=N\c1ccc(Cl)cc1)c1ccccc1N
inactive: 786-0 > 100 µM | ACHN > 100 µM | DU-145 > 100 µM | EKVX > 100 µM | HCC 2998 > 100 µM | HCT-116 > 100 µM | MDA-MB-231 > 100 µM | MDA-N > 100 µM | Malme-3M > 100 µM | NCI-H23 > 100 µM | OVCAR-4 > 100 µM | PC-3 > 100 µM | SF-268 > 100 µM | SF-295 > 100 µM | SK-MEL-28 > 100 µM | SK-MEL-5 > 100 µM | SR > 100 µM | UACC-62 > 100 µM

CC(=O)O[C@H]1C(=O)[C@@]2(C)[C@H]([C@H](OC(=O)c3ccccc3)[C@]3(O)C[C@H](OC(=O)[C@H](O)[C@@H](NC(=O)CC(C)(C)C)c4ccccc4)C(C)=C1C3(C)C)C1(OC(C)=O)CO[C@@H]1C[C@@H]2O (some centres undefined)
inactive: MDA-MB-231 > 10 µM | OVCAR-4 > 10 µM
active: 786-0 0.0251 µM | ACHN 0.0764 µM | DU-145 0.00836 µM | EKVX 0.193 µM | HCC 2998 0.00231 µM | HCT-116 < 0.001 µM | MDA-N 0.1 µM | NCI-H23 0.00237 µM | PC-3 0.00183 µM | SF-268 0.0023 µM | SF-295 0.0208 µM | SF-539 0.00127 µM | SK-MEL-28 < 0.001 µM | SK-MEL-5 0.00213 µM | UACC-62 0.00158 µM
